# Results from ChEMBL document CHEMBL1201862, “PubChem BioAssay data set” (2004).
#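 Interpolation was linear, between the two tested concentrations surrounding the appropriate level; five concentrations were tested over 48 hours in 96-well plates. At the GI50, growth is halved.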 Active and inactive are the calls of the source. Rule as the data show it: active = GI50 up to about 1.1 µM and inactive = higher.
# Columns and labels:
# Test in all cases: NCI tumour cell line growth inhibition, 48 h
# [1] = tested on: A498
# [2] = tested on: A549
# [3] = tested on: ACHN
# [4] = tested on: CAKI-1
# [5] = tested on: CCRF-CEM
# [6] = tested on: COLO 205
# [7] = tested on: DLD-1
# [8] = tested on: DMS-114
# [9] = tested on: DMS-273
# [10] = tested on: EKVX
# [11] = tested on: HCC 2998
# [12] = tested on: HCT-116
# [13] = tested on: HCT-15
# [14] = tested on: HL-60
# [15] = tested on: HOP-18
# [16] = tested on: HOP-62
# [17] = tested on: HOP-92
# [18] = tested on: HT-29
# [19] = tested on: IGROV-1
# [20] = tested on: K562
# [21] = tested on: KM-20L2
# [22] = tested on: KM12
# [23] = tested on: LOX IMVI
# [24] = tested on: LXFL 529
# [25] = tested on: M14
# [26] = tested on: MOLT-4
# [27] = tested on: Malme-3M
# [28] = tested on: NCI-H226
# [29] = tested on: NCI-H23
# [30] = tested on: NCI-H460
# [31] = tested on: NCI-H522
# [32] = tested on: OVCAR-3
# [33] = tested on: OVCAR-4
# [34] = tested on: OVCAR-5
# [35] = tested on: OVCAR-8
# [36] = tested on: RPMI-8226
# [37] = tested on: RXF 393
# [38] = tested on: RXF 631
# [39] = tested on: SF-268
# [40] = tested on: SF-295
# [41] = tested on: SF-539
# [42] = tested on: SK-MEL-28
# [43] = tested on: SK-MEL-2
# [44] = tested on: SK-MEL-5
# [45] = tested on: SK-OV-3
# [46] = tested on: SN12C
# [47] = tested on: SNB-19
# [48] = tested on: SNB-75
# [49] = tested on: SR
# [50] = tested on: SW-620
# [51] = tested on: TK-10
# [52] = tested on: U-251
# [53] = tested on: UACC-257
# [54] = tested on: UACC-62
# [55] = tested on: UO-31
# [56] = tested on: XF498
# [57] = tested on: 786-0
# [58] = tested on: M19-MEL
# [59] = tested on: SNB-78
structure (smiles),measurement,setting,value
Cc1cccc(C(C)C)c1NC(=O)CC1Sc2ccccc2NC1=O (configuration not stated),GI50,[1],72.4 µM (inactive)
same,GI50,[2],87.3 µM (inactive)
same,GI50,[3],> 100 µM (inactive)
same,GI50,[4],> 100 µM (inactive)
same,GI50,[5],> 100 µM (inactive)
same,GI50,[6],> 100 µM (inactive)
same,GI50,[7],> 100 µM (inactive)
same,GI50,[8],23.4 µM (inactive)
same,GI50,[9],45.8 µM (inactive)
same,GI50,[10],> 100 µM (inactive)
same,GI50,[11],> 100 µM (inactive)
same,GI50,[12],55.6 µM (inactive)
same,GI50,[13],70.1 µM
same,GI50,[14],46.9 µM (inactive)
same,GI50,[15],> 100 µM (inactive)
same,GI50,[16],> 100 µM (inactive)
same,GI50,[17],37.8 µM (inactive)
same,GI50,[18],48.9 µM (inactive)
same,GI50,[19],> 100 µM (inactive)
same,GI50,[20],33.1 µM (inactive)
same,GI50,[21],> 100 µM (inactive)
same,GI50,[22],> 100 µM (inactive)
same,GI50,[23],94.4 µM (inactive)
same,GI50,[24],79.1 µM (inactive)
same,GI50,[25],50.1 µM (inactive)
same,GI50,[26],20.5 µM (inactive)
same,GI50,[27],31.8 µM (inactive)
same,GI50,[28],77.8 µM (inactive)
same,GI50,[29],> 100 µM (inactive)
same,GI50,[30],> 100 µM (inactive)
same,GI50,[31],78.7 µM (inactive)
same,GI50,[32],> 100 µM (inactive)
same,GI50,[33],> 100 µM (inactive)
same,GI50,[34],> 100 µM (inactive)
same,GI50,[35],> 100 µM (inactive)
same,GI50,[36],57.4 µM (inactive)
same,GI50,[37],87.3 µM (inactive)
same,GI50,[38],85.1 µM (inactive)
same,GI50,[39],63 µM (inactive)
same,GI50,[40],40.2 µM (inactive)
same,GI50,[41],> 100 µM (inactive)
same,GI50,[42],83.6 µM (inactive)
same,GI50,[43],42.5 µM (inactive)
same,GI50,[44],35.4 µM (inactive)
same,GI50,[45],> 100 µM (inactive)
same,GI50,[46],> 100 µM (inactive)
same,GI50,[47],> 100 µM (inactive)
same,GI50,[48],60.3 µM (inactive)
same,GI50,[49],41 µM (inactive)
same,GI50,[50],76.4 µM (inactive)
same,GI50,[51],> 100 µM (inactive)
same,GI50,[52],> 100 µM (inactive)
same,GI50,[53],> 100 µM (inactive)
same,GI50,[54],44.4 µM (inactive)
same,GI50,[55],74.5 µM (inactive)
same,GI50,[56],> 100 µM (inactive)
C[C@@H]1OC2(O)[C@H]3CCCN3S(=O)(=O)CCN2C1=O (some centres not stated),GI50,[57],> 100 µM (inactive)
same,GI50,[1],> 100 µM (inactive)
same,GI50,[2],> 100 µM (inactive)
same,GI50,[3],> 100 µM (inactive)
same,GI50,[4],> 100 µM (inactive)
same,GI50,[5],> 100 µM (inactive)
same,GI50,[6],> 100 µM (inactive)
same,GI50,[7],> 100 µM (inactive)
same,GI50,[10],> 100 µM (inactive)
same,GI50,[11],> 100 µM (inactive)
same,GI50,[12],> 100 µM (inactive)
same,GI50,[13],> 100 µM
same,GI50,[14],> 100 µM (inactive)
same,GI50,[15],> 100 µM (inactive)
same,GI50,[16],> 100 µM (inactive)
same,GI50,[17],> 100 µM (inactive)
same,GI50,[18],> 100 µM (inactive)
same,GI50,[19],> 100 µM (inactive)
same,GI50,[20],> 100 µM (inactive)
same,GI50,[21],> 100 µM (inactive)
same,GI50,[22],> 100 µM (inactive)
same,GI50,[23],> 100 µM (inactive)
same,GI50,[24],> 100 µM (inactive)
same,GI50,[25],> 100 µM (inactive)
same,GI50,[58],> 100 µM (inactive)
same,GI50,[26],> 100 µM (inactive)
same,GI50,[27],> 100 µM (inactive)
same,GI50,[28],> 100 µM (inactive)
same,GI50,[29],> 100 µM (inactive)
same,GI50,[30],> 100 µM (inactive)
same,GI50,[31],> 100 µM (inactive)
same,GI50,[32],> 100 µM (inactive)
same,GI50,[33],> 100 µM (inactive)
same,GI50,[34],> 100 µM (inactive)
same,GI50,[35],> 100 µM (inactive)
same,GI50,[36],> 100 µM (inactive)
same,GI50,[37],> 100 µM (inactive)
same,GI50,[38],> 100 µM (inactive)
same,GI50,[39],> 100 µM (inactive)
same,GI50,[40],> 100 µM (inactive)
same,GI50,[41],> 100 µM (inactive)
same,GI50,[42],> 100 µM (inactive)
same,GI50,[44],> 100 µM (inactive)
same,GI50,[45],> 100 µM (inactive)
same,GI50,[46],> 100 µM (inactive)
same,GI50,[47],> 100 µM (inactive)
same,GI50,[48],> 100 µM (inactive)
same,GI50,[59],> 100 µM (inactive)
same,GI50,[49],> 100 µM (inactive)
same,GI50,[50],> 100 µM (inactive)
same,GI50,[51],> 100 µM (inactive)
same,GI50,[52],> 100 µM (inactive)
same,GI50,[53],> 100 µM (inactive)
same,GI50,[54],> 100 µM (inactive)
same,GI50,[55],> 100 µM (inactive)
same,GI50,[56],0.0306 µM (active)
